# Experiments:
# [1] = tested on: Pseudomonas aeruginosa; assay: Antibacterial activity against Pseudomonas aeruginosa from cystic fibrosis patients by broth microdilution method; format: functional
# [2] = tested on: Klebsiella pneumoniae; assay: Antibacterial activity against Klebsiella pneumoniae expressing ESBL by broth microdilution method; format: functional
# [3] = tested on: Pseudomonas aeruginosa; assay: microbe, parasite or virus in culture; details: 1091-05
# Description: Antibacterial activity against Pseudomonas aeruginosa 1091-05 by broth microdilution method
# [4] = tested on: Klebsiella pneumoniae; assay: Antibacterial activity against Klebsiella pneumoniae expressing KPC by broth microdilution method; format: functional
# [5] = tested on: Klebsiella pneumoniae; assay: Antibacterial activity against Klebsiella pneumoniae expressing defined beta-lactamase by broth microdilution method; format: functional
# [6] = tested on: Escherichia coli; assay: Antibacterial activity against Escherichia coli expressing ESBL by broth microdilution method; format: functional
# [7] = tested on: Klebsiella pneumoniae; assay: Antibacterial activity against Klebsiella pneumoniae 1000-02 by broth microdilution method; format: functional
# [8] = tested on: Escherichia coli; assay: Antibacterial activity against Escherichia coli expressing defined beta-lactamase by broth microdilution method; format: functional
# [9] = tested on: Acinetobacter baumannii; assay: Antibacterial activity against Acinetobacter baumannii AB-3167 by broth microdilution method; format: functional
# [10] = tested on: Escherichia coli; assay: Antibacterial activity against Escherichia coli expressing CTX-M by broth microdilution method; format: functional
# [11] = tested on: Acinetobacter sp.; assay: Antibacterial activity against Acinetobacter spp. by broth microdilution method; format: functional
# [12] = tested on: Klebsiella pneumoniae; assay: Antibacterial activity against Klebsiella pneumoniae 1487-07 by broth microdilution method; format: functional
# [13] = tested on: Pseudomonas aeruginosa; assay: Antibacterial activity against Pseudomonas aeruginosa 1042-06 by broth microdilution method; format: functional
# [14] = Inhibition of PBP3 in Pseudomonas aeruginosa ATCC 27853 after 20 mins by fluorescence assay
# [15] = Inhibition of PBP1b in Pseudomonas aeruginosa ATCC 27853 after 20 mins by fluorescence assay
# [16] = Inhibition of PBP2 in Pseudomonas aeruginosa ATCC 27853 after 20 mins by fluorescence assay
# [17] = Inhibition of PBP1a in Pseudomonas aeruginosa ATCC 27853 after 20 mins by fluorescence assay
# [18] = tested on: Pseudomonas aeruginosa; assay: Antibacterial activity against Pseudomonas aeruginosa expressing metallo-beta-lactamase by broth microdilution method; format: functional
SMILES,MIC [3],MIC [7],MIC [9],MIC [12],MIC [13],further results
C[C@@H](O)[C@H]1C(=O)N2C(C(=O)O)=C(S[C@@H]3CN[C@H](C(=O)N(C)C)C3)[C@H](C)[C@H]12 [MEROPENEM],2 µg/mL,0.25 µg/mL,0.25 µg/mL,,,MIC50 [1]: 1 µg/mL; MIC90 [1]: 16 µg/mL; MIC50 [2]: 0.03 µg/mL; MIC90 [2]: 0.25 µg/mL; MIC50 [4]: 32 µg/mL; MIC90 [4]: > 64 µg/mL; MIC50 [5]: 0.03 µg/mL; MIC90 [5]: 0.25 µg/mL; MIC50 [6]: 0.03 µg/mL; MIC90 [6]: 0.06 µg/mL; MIC50 [8]: 0.03 µg/mL; MIC90 [8]: 0.06 µg/mL; MIC50 [10]: 0.03 µg/mL; MIC90 [10]: 0.06 µg/mL; MIC50 [11]: 1 µg/mL; MIC90 [11]: 32 µg/mL
Nc1nc(/C(=N/OC2CCCC2)C(=O)N[C@@H]2C(=O)N(S(=O)(=O)O)[C@@H]2CNC(=O)NCc2cc(=O)c(O)cn2O)cs1,1 µg/mL,8 µg/mL,1 µg/mL,32 µg/mL,16 µg/mL,
Nc1nc(/C(=N/OCCO)C(=O)N[C@@H]2C(=O)N(S(=O)(=O)O)[C@@H]2CNC(=O)NCc2cc(=O)c(O)cn2O)cs1,0.5 µg/mL,32 µg/mL,0.5 µg/mL,32 µg/mL,16 µg/mL,
Nc1nc(/C(=N/OCc2cscn2)C(=O)N[C@@H]2C(=O)N(S(=O)(=O)O)[C@@H]2CNC(=O)NCc2cc(=O)c(O)cn2O)cs1,1 µg/mL,16 µg/mL,1 µg/mL,16 µg/mL,> 64 µg/mL,
CC(C)(O/N=C(\C(=O)N[C@@H]1C(=O)N(S(=O)(=O)O)[C@@H]1CNC(=O)c1cc(=O)c(O)c[nH]1)c1csc(N)n1)C(=O)O,0.125 µg/mL,0.5 µg/mL,0.125 µg/mL,,0.5 µg/mL,
Cn1cc(O)c(=O)cc1C(=O)NC[C@@H]1[C@H](NC(=O)/C(=N\OC(C)(C)C(=O)O)c2csc(N)n2)C(=O)N1S(=O)(=O)O,4 µg/mL,,4 µg/mL,4 µg/mL,4 µg/mL,
CC(C)(O/N=C(\C(=O)N[C@@H]1C(=O)N(S(=O)(=O)O)[C@@H]1Cn1cc(-c2cc(=O)c(O)cn2O)nn1)c1csc(N)n1)C(=O)O,0.125 µg/mL,,0.125 µg/mL,,,
CC(C)(O/N=C(\C(=O)N[C@@H]1C(=O)N(S(=O)(=O)O)[C@@H]1CNC(=O)c1[nH]ccc(=O)c1O)c1csc(N)n1)C(=O)O,32 µg/mL,32 µg/mL,32 µg/mL,64 µg/mL,> 64 µg/mL,
Nc1nc(/C(=N/O[C@@H](Cc2ccccc2)C(=O)O)C(=O)N[C@@H]2C(=O)N(S(=O)(=O)O)[C@@H]2CNC(=O)NCc2cc(=O)c(O)cn2O)cs1,1 µg/mL,,,1 µg/mL,8 µg/mL,
Nc1nc(/C(=N/OCc2nnn[nH]2)C(=O)N[C@@H]2C(=O)N(S(=O)(=O)O)[C@@H]2CNC(=O)NCc2cc(=O)c(O)cn2O)cs1,0.5 µg/mL,8 µg/mL,0.5 µg/mL,32 µg/mL,16 µg/mL,
Nc1nc(/C(=N/OC2(C(=O)O)CCCC2)C(=O)N[C@@H]2C(=O)N(S(=O)(=O)O)[C@@H]2CNC(=O)NCc2cc(=O)c(O)cn2O)cs1,0.25 µg/mL,0.25 µg/mL,0.125 µg/mL,0.5 µg/mL,1 µg/mL,
Nc1nc(/C(=N/OCC(=O)O)C(=O)N[C@@H]2C(=O)N(S(=O)(=O)O)[C@@H]2CNC(=O)NCc2cc(=O)c(O)cn2O)cs1,0.125 µg/mL,,,8 µg/mL,4 µg/mL,
Nc1nc(/C(=N/OC2(C(=O)O)CCC2)C(=O)N[C@@H]2C(=O)N(S(=O)(=O)O)[C@@H]2CNC(=O)NCc2cc(=O)c(O)cn2O)cs1,,,0.125 µg/mL,0.5 µg/mL,1 µg/mL,IC50 [14]: 0.066 µM; IC50 [15]: 2.46 µM; IC50 [16]: > 300 µM; IC50 [17]: 0.34 µM
CC(C)(O/N=C(\C(=O)N[C@@H]1C(=O)N(S(=O)(=O)O)[C@@H]1CNC(=O)c1cc(=O)c(O)co1)c1csc(N)n1)C(=O)O,8 µg/mL,32 µg/mL,8 µg/mL,64 µg/mL,64 µg/mL,
CC(C)(O/N=C(\C(=O)N[C@@H]1C(=O)N(S(=O)(=O)O)[C@@H]1CNC(=O)c1cccc(O)c1O)c1csc(N)n1)C(=O)O,16 µg/mL,64 µg/mL,16 µg/mL,64 µg/mL,32 µg/mL,
Nc1nc(/C(=N/Oc2ccccc2)C(=O)N[C@@H]2C(=O)N(S(=O)(=O)O)[C@@H]2CNC(=O)NCc2cc(=O)c(O)cn2O)cs1,0.5 µg/mL,> 64 µg/mL,0.5 µg/mL,> 64 µg/mL,16 µg/mL,
CC(C)(O/N=C(\C(=O)N[C@@H]1C(=O)N(S(=O)(=O)O)[C@@H]1CNC(=O)c1cc(=O)c(O)cn1CC(=O)O)c1csc(N)n1)C(=O)O,1 µg/mL,0.25 µg/mL,1 µg/mL,4 µg/mL,2 µg/mL,
NCC[C@H](O)C(=O)N[C@@H]1C[C@H](N)[C@@H](O[C@H]2O[C@H](CN)[C@@H](O)[C@H](O)[C@H]2O)[C@H](O)[C@H]1O[C@H]1O[C@H](CO)[C@@H](O)[C@H](N)[C@H]1O [AMIKACIN],2 µg/mL,,1 µg/mL,64 µg/mL,8 µg/mL,MIC50 [1]: 8 µg/mL; MIC90 [1]: > 64 µg/mL; MIC50 [2]: 4 µg/mL; MIC90 [2]: 64 µg/mL; MIC50 [4]: 32 µg/mL; MIC90 [4]: > 64 µg/mL; MIC50 [5]: 4 µg/mL; MIC90 [5]: > 64 µg/mL; MIC50 [6]: 8 µg/mL; MIC90 [6]: 64 µg/mL; MIC50 [18]: > 64 µg/mL; MIC90 [18]: > 64 µg/mL; MIC50 [8]: 1 µg/mL; MIC90 [8]: 16 µg/mL; MIC50 [10]: 8 µg/mL; MIC90 [10]: 32 µg/mL; MIC50 [11]: 4 µg/mL; MIC90 [11]: > 64 µg/mL
CC(C)(O/N=C(\C(=O)N[C@@H]1C(=O)N(S(=O)(=O)O)[C@@H]1CNc1cc(C(=O)NCc2cc(=O)c(O)cn2O)ccn1)c1csc(N)n1)C(=O)O,,,0.125 µg/mL,16 µg/mL,1 µg/mL,
CO/N=C(\C(=O)N[C@@H]1C(=O)N2C(C(=O)[O-])=C(C[N+]3(C)CCCC3)CS[C@H]12)c1csc(N)n1,2 µg/mL,,2 µg/mL,> 64 µg/mL,,MIC50 [1]: 8 µg/mL; MIC90 [1]: > 64 µg/mL; MIC50 [2]: 8 µg/mL; MIC90 [2]: > 64 µg/mL; MIC50 [4]: > 64 µg/mL; MIC90 [4]: > 64 µg/mL; MIC50 [5]: 4 µg/mL; MIC90 [5]: > 64 µg/mL; MIC50 [6]: 64 µg/mL; MIC90 [6]: > 64 µg/mL; MIC50 [18]: > 64 µg/mL; MIC90 [18]: > 64 µg/mL; MIC50 [8]: 0.25 µg/mL; MIC90 [8]: 4 µg/mL; MIC50 [10]: 64 µg/mL; MIC90 [10]: > 64 µg/mL; MIC50 [11]: 8 µg/mL; MIC90 [11]: > 64 µg/mL
COn1cc(O)c(=O)cc1C(=O)NC[C@@H]1[C@H](NC(=O)/C(=N\OC(C)(C)C(=O)O)c2csc(N)n2)C(=O)N1S(=O)(=O)O,1 µg/mL,1 µg/mL,1 µg/mL,8 µg/mL,4 µg/mL,
CC(C)(O/N=C(\C(=O)N[C@@H]1C(=O)N(S(=O)(=O)O)[C@@H]1CNC(=O)c1cc(=O)c(O)cn1-c1ccccc1)c1csc(N)n1)C(=O)O,32 µg/mL,1 µg/mL,32 µg/mL,16 µg/mL,32 µg/mL,IC50 [14]: 0.14 µM; IC50 [15]: 7.4 µM; IC50 [16]: > 300 µM; IC50 [17]: 0.58 µM
Nc1nc(/C(=N/OC2(C(=O)O)CCCCC2)C(=O)N[C@@H]2C(=O)N(S(=O)(=O)O)[C@@H]2CNC(=O)NCc2cc(=O)c(O)cn2O)cs1,1 µg/mL,,,4 µg/mL,8 µg/mL,
CNn1cc(O)c(=O)cc1C(=O)NC[C@@H]1[C@H](NC(=O)/C(=N\OC(C)(C)C(=O)O)c2csc(N)n2)C(=O)N1S(=O)(=O)O,2 µg/mL,0.5 µg/mL,2 µg/mL,8 µg/mL,8 µg/mL,
CC(C)(O/N=C(\C(=O)N[C@@H]1C(=O)N(S(=O)(=O)O)[C@@H]1CNS(=O)(=O)NCc1cc(=O)c(O)cn1O)c1csc(N)n1)C(=O)O,1 µg/mL,,1 µg/mL,32 µg/mL,16 µg/mL,
Nc1nc(/C(=N/OCCCC(=O)O)C(=O)N[C@@H]2C(=O)N(S(=O)(=O)O)[C@@H]2CNC(=O)NCc2cc(=O)c(O)cn2O)cs1,0.5 µg/mL,32 µg/mL,0.5 µg/mL,> 64 µg/mL,8 µg/mL,
NCCO/N=C(\C(=O)N[C@@H]1C(=O)N(S(=O)(=O)O)[C@@H]1CNC(=O)NCc1cc(=O)c(O)cn1O)c1csc(N)n1,4 µg/mL,> 64 µg/mL,4 µg/mL,> 64 µg/mL,> 64 µg/mL,
CC(C)C[C@H](O/N=C(\C(=O)N[C@@H]1C(=O)N(S(=O)(=O)O)[C@@H]1CNC(=O)NCc1cc(=O)c(O)cn1O)c1csc(N)n1)C(=O)O,1 µg/mL,,1 µg/mL,1 µg/mL,16 µg/mL,
O=C(O)c1cn(C2CC2)c2cc(N3CCNCC3)c(F)cc2c1=O [CIPROFLOXACIN],,,0.06 µg/mL,,64 µg/mL,MIC50 [1]: 2 µg/mL; MIC90 [1]: 16 µg/mL; MIC50 [2]: 0.25 µg/mL; MIC50 [5]: 0.5 µg/mL; MIC50 [6]: > 64 µg/mL; MIC90 [6]: > 64 µg/mL; MIC50 [18]: 32 µg/mL; MIC90 [18]: > 64 µg/mL; MIC50 [8]: 0.03 µg/mL; MIC90 [8]: 0.06 µg/mL; MIC90 [10]: > 64 µg/mL; MIC50 [11]: 0.5 µg/mL; MIC90 [11]: > 64 µg/mL
CC(C)(O/N=C(\C(=O)N[C@@H]1C(=O)N(S(=O)(=O)O)[C@@H]1CNC(=O)NCc1cc(=O)c(O)cn1O)c1csc(N)n1)C(=O)NO,1 µg/mL,8 µg/mL,1 µg/mL,16 µg/mL,> 64 µg/mL,IC50 [14]: 0.27 µM; IC50 [15]: 11.1 µM; IC50 [16]: > 300 µM; IC50 [17]: 3.02 µM

# Reference: ChEMBL document CHEMBL2407067, “Pyridone-conjugated monobactam antibiotics with gram-negative activity” (J Med Chem, 2013)
